Test results: patent publication EP0271099A2, “Substituted aminopropionic acid amides, process for their preparation, agents containing them and their use as well as the intermediates formed during the preparation” (HOECHST AKTIENGESELLSCHAFT, priority 1986, dated 1988)
Read-outs that look alike come from different tables or passages of the source.

System: ECS-Amnesie
Test: Inhibitory (passive) avoidance test, reversal of amnesia induced by electroconvulsive shock
Format: in vivo, Mäusen
Conditions: Mus musculus
Excerpt: Die Verbindungen der Formel I besitzen wertvolle pharmakologische Eigenschaften, insbesondere nootrope. Die nootrope Wirkung der erfindungsgemäßen Verbindungen wurde an Mäusen, die ein Köpergewicht von 20-25 g besaßen, im inhibitory (passive) avoidance test geprüft. Eine modifizierte Form der von J. Kopp, Z. Bodanecky und M.E. Jarvik beschriebenen Testmethode wurde von J. Bures, O. Buresova und J. Huston im "Techniques and Basic Experiments for the Study of Brain and Behavior", Elsevier Scientific Publishers, Amsterdam 1983, beschrieben.
Entsprechend diesen Literaturangaben wird eine Substanz dann als nootrop wirksam bezeichnet, wenn sie bei den Versuchstieren die mittels eines elektroconvulsiven Schocks erzeugte Amnesie (ECS-Amnesie) aufzuheben vermag.
Die Versuche wurden nach modifizierten Testmethoden mit den erfindungsgemäßen Verbindungen durchgeführt. Als Vergleichsverbindung diente das bekannte Nootropikum 2-Oxo-1-pyrrolidinylessigsäureamid (Piracetam). Die deutliche Überlegenheit der erfindungsgemäßen Verbindungen über die Vergleichssubstanz zeigte sich darin, daß der amnestische Effekt bereits mit einer MED (minimal effective dosis) von 0,1-10 mg/kg p.o. aufzuheben ist. Die Vergleichssubstanz hat eine MED von ca. 500-1000 mg/kg p.o..

[1] = mice 20-25 g, oral, MED = minimal effective dosis reversing ECS-Amnesie, Table 1, read-out: Inhibitory avoidance MED mg/kg p.o. ECS-Amnesie
[2] = po, read-out: Inhibitory avoidance MED mg/kg p.o. ECS-Amnesie

| SMILES | minimal effective dose [1] [mg/kg] | minimal effective dose [2] [mg/kg] | minimal effective dose (po, read-out: MED (minimal effective dosis)) [mg/kg] |
| --- | --- | --- | --- |
| O=C(O)CCc1ccc(NC(=O)CCN2CCN(c3cccc(Cl)c3)CC2)cc1 [Beispiel 34, 3-{4-(3-(4-(3-Chlorphenyl)-piperazino)-propionamido]-phenyl}-propionsäure] | 1.6 | – | – |
| NC(=O)CN1CCCC1=O [Piracetam, 2-Oxo-1-pyrrolidinylessigsäureamid, reference compound] | – | 1000 | 500 to 1000 |
| O=C(O)CCc1ccc(NC(=O)CCNCCCc2ccccc2)cc1 [Beispiel 48, 3-{4-[3-(3-Phenylpropylamino)-propionamido]-phenyl}-propionsäure] | 50 | – | – |
| O=C(O)CCc1ccc(NC(=O)CCN2CCN(c3ccccc3)CC2)cc1 [Beispiel 46, 3-{4-[3-(4-Phenylpiperazino)-propionamido]-phenyl}-propionsäure] | 25 | – | – |
| O=C(O)CCc1ccc(NC(=O)CCN2CC=C(c3cccc(Cl)c3)CC2)cc1 [Beispiel 49, 3-{4-[3-(4-(3-Chlorphenyl)-1,2,5,6-tetrahydropyridino)-propionamido]-phenyl}-propionsäure] | – | 25 | – |
| O=C(O)CCCc1ccc(NC(=O)CCN2CCC(c3ccccc3)CC2)cc1 [Beispiel 45, 4-{4-[3-(4-Phenylpiperidino)-propionamido]-phenyl}-buttersäure] | 25 | – | – |
| O=C(O)C=Cc1ccc(NC(=O)CCN2CCN(c3cccc(Cl)c3)CC2)cc1 [Beispiel 35, 4-{3-[4-(3-Chlorphenyl)-piperazino]-propionamido}-zimtsäure] | 50 | – | – |
| O=C(O)CCc1ccc(NC(=O)CCN2CCN(CCCc3ccccc3)CC2)cc1 [Beispiel 47, 3-{4-[3-(4-(3-Phenylpropyl)-piperazino)-propionamido]-phenyl}-propionsäure] | 25 | – | – |
